In the kinase profiling compilation of Christmann-Franck et al. (2016):

Experiments:
Assay in all cases: KINOMEscan competition binding
Details in all cases: compound 10.0 µM
MYLK3 (human) = MYLK3 (human) (UniProt Q32MK0)
MARK3 (human) = MARK3 (human) (UniProt P27448)
MKNK1 (human) = MKNK1 (human) (UniProt Q9BUB5)
MAP2K6 (human) = MAP2K6 (human) (UniProt P52564)
PRKCI (human) = PRKCI (human) (UniProt P41743)
PKN1 (human) = PKN1 (human) (UniProt Q16512)
INSRR (human) = INSRR (human) (UniProt P14616)
RPS6KA4 KD1 (human) = RPS6KA4 KD1 (human) (UniProt O75676)
MAP3K13 (human) = MAP3K13 (human) (UniProt O43283)
MAST1 (human) = MAST1 (human) (UniProt Q9Y2H9)
DAPK3 (human) = DAPK3 (human) (UniProt O43293)
SIK2 (human) = SIK2 (human) (UniProt Q9H0K1)
NEK3 (human) = NEK3 (human) (UniProt P51956)
ERBB3 (human) = ERBB3 (human) (UniProt P21860)
Chain of ERBB3 (human) (P21860 whole entry, looked up): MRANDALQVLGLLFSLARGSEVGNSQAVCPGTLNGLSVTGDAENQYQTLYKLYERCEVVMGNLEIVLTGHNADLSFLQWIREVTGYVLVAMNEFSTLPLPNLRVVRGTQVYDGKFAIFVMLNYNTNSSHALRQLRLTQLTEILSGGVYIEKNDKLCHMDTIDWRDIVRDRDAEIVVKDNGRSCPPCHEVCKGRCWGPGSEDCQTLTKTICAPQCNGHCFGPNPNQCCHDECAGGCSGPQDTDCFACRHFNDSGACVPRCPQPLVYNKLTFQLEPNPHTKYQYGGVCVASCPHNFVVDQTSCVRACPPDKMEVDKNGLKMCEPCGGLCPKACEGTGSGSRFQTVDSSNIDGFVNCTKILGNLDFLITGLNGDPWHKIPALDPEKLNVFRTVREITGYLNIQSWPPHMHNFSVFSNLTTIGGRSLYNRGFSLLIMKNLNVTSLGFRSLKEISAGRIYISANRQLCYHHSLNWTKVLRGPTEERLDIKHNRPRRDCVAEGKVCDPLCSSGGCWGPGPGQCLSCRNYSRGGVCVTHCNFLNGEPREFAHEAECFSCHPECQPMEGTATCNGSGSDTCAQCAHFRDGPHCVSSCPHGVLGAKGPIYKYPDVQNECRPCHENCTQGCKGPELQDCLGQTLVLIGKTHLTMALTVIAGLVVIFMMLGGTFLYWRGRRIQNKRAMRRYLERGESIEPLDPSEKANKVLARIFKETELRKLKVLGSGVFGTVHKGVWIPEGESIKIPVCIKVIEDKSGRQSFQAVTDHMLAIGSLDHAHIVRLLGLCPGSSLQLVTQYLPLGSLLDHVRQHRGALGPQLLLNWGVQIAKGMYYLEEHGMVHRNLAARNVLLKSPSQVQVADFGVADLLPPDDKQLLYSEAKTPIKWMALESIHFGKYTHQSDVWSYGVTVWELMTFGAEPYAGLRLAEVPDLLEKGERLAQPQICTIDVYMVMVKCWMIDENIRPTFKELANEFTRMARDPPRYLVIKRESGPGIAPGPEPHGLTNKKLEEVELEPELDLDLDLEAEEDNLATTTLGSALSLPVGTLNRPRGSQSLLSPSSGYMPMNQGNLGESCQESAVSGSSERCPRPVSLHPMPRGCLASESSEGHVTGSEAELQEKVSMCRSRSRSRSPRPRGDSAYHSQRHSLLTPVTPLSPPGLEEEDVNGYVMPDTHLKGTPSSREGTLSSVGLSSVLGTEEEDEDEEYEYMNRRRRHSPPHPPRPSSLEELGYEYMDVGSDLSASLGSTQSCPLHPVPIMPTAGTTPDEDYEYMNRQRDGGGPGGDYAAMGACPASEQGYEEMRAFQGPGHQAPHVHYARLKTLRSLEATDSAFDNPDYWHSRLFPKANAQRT

PDGFRA (human) = PDGFRA (human) (UniProt P16234)
STK32B (human) = STK32B (human) (UniProt Q9NY57)
Chain of STK32B (human) (Q9NY57 whole entry, looked up): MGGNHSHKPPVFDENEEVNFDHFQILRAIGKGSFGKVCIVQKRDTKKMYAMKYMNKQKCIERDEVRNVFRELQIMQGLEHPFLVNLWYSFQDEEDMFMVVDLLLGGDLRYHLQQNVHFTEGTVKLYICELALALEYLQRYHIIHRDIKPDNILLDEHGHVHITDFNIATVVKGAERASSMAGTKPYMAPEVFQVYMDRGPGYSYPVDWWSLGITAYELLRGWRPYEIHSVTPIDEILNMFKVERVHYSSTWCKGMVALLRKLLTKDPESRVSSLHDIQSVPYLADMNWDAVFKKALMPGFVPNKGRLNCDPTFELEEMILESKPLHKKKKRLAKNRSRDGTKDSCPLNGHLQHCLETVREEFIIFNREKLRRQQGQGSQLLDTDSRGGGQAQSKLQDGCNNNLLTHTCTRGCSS

CHEK2 (human) = CHEK2 (human) (UniProt O96017)
NEK9 (human) = NEK9 (human) (UniProt Q8TD19)
MAK (human) = MAK (human) (UniProt P20794)
SGK110 (human) = SGK110 (human) (UniProt P0C264)
STK4 (human) = STK4 (human) (UniProt Q13043)
TXK (human) = TXK (human) (UniProt P42681)
Chain of TXK (human) (P42681 whole entry, looked up): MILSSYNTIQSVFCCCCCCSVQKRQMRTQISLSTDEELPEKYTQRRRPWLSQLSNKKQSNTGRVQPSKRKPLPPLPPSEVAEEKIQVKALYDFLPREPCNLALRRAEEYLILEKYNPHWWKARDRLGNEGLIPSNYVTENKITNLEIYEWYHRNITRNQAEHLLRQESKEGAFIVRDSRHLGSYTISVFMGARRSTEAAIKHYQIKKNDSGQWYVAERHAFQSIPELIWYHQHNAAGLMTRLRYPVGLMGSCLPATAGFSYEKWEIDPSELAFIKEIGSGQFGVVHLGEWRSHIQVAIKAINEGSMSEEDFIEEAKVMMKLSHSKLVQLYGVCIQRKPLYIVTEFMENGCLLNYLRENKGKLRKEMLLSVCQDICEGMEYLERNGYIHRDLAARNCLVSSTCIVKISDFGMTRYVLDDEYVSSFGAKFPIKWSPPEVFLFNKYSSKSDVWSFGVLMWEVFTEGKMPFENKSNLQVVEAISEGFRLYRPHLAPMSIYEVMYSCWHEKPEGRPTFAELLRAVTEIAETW

FLT4 (human) = FLT4 (human) (UniProt P35916)
Chain of FLT4 (human) (P35916 whole entry, looked up): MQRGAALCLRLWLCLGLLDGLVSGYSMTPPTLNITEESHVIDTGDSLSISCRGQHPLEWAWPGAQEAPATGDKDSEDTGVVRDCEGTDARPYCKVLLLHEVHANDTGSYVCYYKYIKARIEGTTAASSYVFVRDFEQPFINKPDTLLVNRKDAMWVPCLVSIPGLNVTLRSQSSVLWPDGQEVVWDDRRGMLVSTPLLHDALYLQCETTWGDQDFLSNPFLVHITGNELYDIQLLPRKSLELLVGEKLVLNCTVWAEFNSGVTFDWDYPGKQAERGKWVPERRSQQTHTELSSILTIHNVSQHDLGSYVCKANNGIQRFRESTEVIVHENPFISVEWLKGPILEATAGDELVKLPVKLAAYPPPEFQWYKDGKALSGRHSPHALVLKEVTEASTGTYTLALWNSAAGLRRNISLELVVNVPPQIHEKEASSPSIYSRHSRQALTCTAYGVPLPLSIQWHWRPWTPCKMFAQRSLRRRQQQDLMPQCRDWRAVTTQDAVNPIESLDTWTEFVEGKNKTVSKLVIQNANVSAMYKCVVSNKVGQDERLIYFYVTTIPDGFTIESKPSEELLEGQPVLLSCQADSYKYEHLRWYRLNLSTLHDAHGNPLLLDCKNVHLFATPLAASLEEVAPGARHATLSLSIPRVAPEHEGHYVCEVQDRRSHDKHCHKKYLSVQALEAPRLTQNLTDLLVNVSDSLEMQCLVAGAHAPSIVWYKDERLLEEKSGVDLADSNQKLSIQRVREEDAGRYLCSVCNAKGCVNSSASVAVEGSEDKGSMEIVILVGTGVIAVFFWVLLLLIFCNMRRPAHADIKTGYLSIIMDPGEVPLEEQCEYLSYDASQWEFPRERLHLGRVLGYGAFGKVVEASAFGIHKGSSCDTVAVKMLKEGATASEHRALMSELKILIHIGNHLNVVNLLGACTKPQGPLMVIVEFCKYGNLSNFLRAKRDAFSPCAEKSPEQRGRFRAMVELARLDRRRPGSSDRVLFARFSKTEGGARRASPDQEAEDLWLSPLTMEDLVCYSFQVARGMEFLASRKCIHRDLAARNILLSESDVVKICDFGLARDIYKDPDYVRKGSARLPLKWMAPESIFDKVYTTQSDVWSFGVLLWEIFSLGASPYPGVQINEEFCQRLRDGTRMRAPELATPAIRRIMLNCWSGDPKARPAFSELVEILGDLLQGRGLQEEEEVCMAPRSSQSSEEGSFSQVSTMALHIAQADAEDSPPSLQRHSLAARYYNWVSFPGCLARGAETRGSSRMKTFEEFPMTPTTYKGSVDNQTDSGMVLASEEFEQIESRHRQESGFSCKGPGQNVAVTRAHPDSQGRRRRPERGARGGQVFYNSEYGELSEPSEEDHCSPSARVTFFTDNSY

PRKACA (human) = PRKACA (human) (UniProt P17612)
MAPK9 (human) = MAPK9 (human) (UniProt P45984)
[1] = test system: RET (human), P07949 [V804M]
MAP3K3 (human) = MAP3K3 (human) (UniProt Q99759)
FES (human) = FES (human) (UniProt P07332)
[2] = target: JAK1 JH1 catalytic (human) (UniProt P23458)
MAPK1 (human) = MAPK1 (human) (UniProt P28482)
CSNK1A1L (human) = CSNK1A1L (human) (UniProt Q8N752)
SLK (human) = SLK (human) (UniProt Q9H2G2)
LYN (human) = LYN (human) (UniProt P07948)
Chain of LYN (human) (P07948 whole entry, looked up): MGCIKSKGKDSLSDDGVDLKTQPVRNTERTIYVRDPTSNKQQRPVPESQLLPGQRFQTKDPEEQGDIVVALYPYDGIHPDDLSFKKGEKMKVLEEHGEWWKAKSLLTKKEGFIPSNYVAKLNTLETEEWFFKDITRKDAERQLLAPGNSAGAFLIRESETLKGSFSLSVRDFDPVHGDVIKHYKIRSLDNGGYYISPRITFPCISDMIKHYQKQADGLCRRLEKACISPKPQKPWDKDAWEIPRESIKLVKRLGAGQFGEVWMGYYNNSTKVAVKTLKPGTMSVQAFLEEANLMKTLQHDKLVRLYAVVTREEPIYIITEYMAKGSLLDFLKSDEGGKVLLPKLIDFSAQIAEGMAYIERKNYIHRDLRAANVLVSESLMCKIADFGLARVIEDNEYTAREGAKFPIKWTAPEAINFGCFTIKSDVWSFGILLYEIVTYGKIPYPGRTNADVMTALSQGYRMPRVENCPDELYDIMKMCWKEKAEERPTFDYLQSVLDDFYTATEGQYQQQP

MAP3K15 (human) = MAP3K15 (human) (UniProt Q6ZN16)
CSNK1D (human) = CSNK1D (human) (UniProt P48730)
DSTYK (human) = DSTYK (human) (UniProt Q6XUX3)
RIOK2 (human) = RIOK2 (human) (UniProt Q9BVS4)
Chain of RIOK2 (human) (Q9BVS4 whole entry, looked up): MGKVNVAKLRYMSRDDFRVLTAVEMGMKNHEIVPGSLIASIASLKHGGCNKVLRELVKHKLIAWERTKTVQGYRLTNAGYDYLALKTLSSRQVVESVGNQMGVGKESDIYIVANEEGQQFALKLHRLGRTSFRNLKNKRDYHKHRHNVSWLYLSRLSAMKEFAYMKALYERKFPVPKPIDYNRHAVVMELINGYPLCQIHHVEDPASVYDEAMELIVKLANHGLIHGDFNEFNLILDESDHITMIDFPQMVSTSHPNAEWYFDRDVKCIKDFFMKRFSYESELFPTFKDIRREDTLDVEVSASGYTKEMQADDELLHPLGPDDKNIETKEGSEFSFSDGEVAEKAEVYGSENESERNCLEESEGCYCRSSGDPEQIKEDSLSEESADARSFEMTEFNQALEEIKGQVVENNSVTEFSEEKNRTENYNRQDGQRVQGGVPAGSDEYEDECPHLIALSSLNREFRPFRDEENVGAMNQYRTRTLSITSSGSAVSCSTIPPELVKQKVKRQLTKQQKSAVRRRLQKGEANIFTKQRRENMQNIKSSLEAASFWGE

ADCK3 (human) = ADCK3 (human) (UniProt Q8NI60)
[3] = test system: EGFR (human), P00533 [752-759 del]
CDC2L2 (human) = CDC2L2 (human) (UniProt Q9UQ88)
KIT (human) = KIT (human) (UniProt P10721)

Chain of MAP2K6 (human) (P52564 whole entry, looked up): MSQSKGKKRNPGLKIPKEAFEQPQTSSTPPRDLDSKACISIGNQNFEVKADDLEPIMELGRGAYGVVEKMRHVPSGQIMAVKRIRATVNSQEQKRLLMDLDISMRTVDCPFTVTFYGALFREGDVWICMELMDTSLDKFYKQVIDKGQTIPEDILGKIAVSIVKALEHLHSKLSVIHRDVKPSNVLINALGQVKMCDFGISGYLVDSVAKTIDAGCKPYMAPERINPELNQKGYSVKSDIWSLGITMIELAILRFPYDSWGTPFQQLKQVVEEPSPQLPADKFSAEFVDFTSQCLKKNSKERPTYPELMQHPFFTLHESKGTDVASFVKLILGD

`CCC(=O)N1CCN(c2ccc(-n3c(=O)ccc4cnc5ccc(-c6cnc7ccccc7c6)cc5c43)cc2C(F)(F)F)CC1` was tested, and the kinase still bound, per cent of control (MYLK3 (human)) was 94%, the kinase still bound, per cent of control (MARK3 (human)) was 100% and the kinase still bound, per cent of control (MKNK1 (human)) was 44%. The kinase still bound, per cent of control (MAP2K6 (human)) was 100%, the kinase still bound, per cent of control (PRKCI (human)) was 85% and the kinase still bound, per cent of control (PKN1 (human)) was 92%. It also gave a kinase still bound, per cent of control (INSRR (human)) of 100%, a kinase still bound, per cent of control (RPS6KA4 KD1 (human)) of 100% and a kinase still bound, per cent of control (MAP3K13 (human)) of 100%. The kinase still bound, per cent of control (MAST1 (human)) was 93%, the kinase still bound, per cent of control (DAPK3 (human)) was 82% and the kinase still bound, per cent of control (SIK2 (human)) was 23%. The kinase still bound, per cent of control (NEK3 (human)) was 100%, the kinase still bound, per cent of control (ERBB3 (human)) was 44% and the kinase still bound, per cent of control (PDGFRA (human)) was 63%. For the same molecule, the kinase still bound, per cent of control (STK32B (human)) was 87%, the kinase still bound, per cent of control (CHEK2 (human)) was 100% and the kinase still bound, per cent of control (NEK9 (human)) was 100%. It also gave a kinase still bound, per cent of control (MAK (human)) of 68%, a kinase still bound, per cent of control (SGK110 (human)) of 94% and a kinase still bound, per cent of control (STK4 (human)) of 7.6%. For the same molecule, the kinase still bound, per cent of control (TXK (human)) was 54%, the kinase still bound, per cent of control (FLT4 (human)) was 74% and the per cent of control (PRKACA (human)) was 79%. The kinase still bound, per cent of control (MAPK9 (human)) was 40%, the kinase still bound, per cent of control [1] was 69% and the kinase still bound, per cent of control (MAP3K3 (human)) was 75%. For the same molecule, the kinase still bound, per cent of control (FES (human)) was 41%, the kinase still bound, per cent of control [2] was 82% and the kinase still bound, per cent of control (MAPK1 (human)) was 100%. The kinase still bound, per cent of control (CSNK1A1L (human)) was 81%, the kinase still bound, per cent of control (SLK (human)) was 94% and the kinase still bound, per cent of control (LYN (human)) was 79%. It also gave a kinase still bound, per cent of control (MAP3K15 (human)) of 100%, a per cent of control (CSNK1D (human)) of 4.3% and a kinase still bound, per cent of control (DSTYK (human)) of 28%. For the same molecule, the kinase still bound, per cent of control (RIOK2 (human)) was 24%, the kinase still bound, per cent of control (ADCK3 (human)) was 17% and the kinase still bound, per cent of control [3] was 84%. The per cent of control (CDC2L2 (human)) was 100%.

`COC(=O)Nc1ccc(-c2nc(N3CCOCC3)c3cnn(C4CCN(C(=O)OC)CC4)c3n2)cc1` showed a kinase still bound, per cent of control (MYLK3 (human)) of 100%, a kinase still bound, per cent of control (MARK3 (human)) of 100% and a kinase still bound, per cent of control (MKNK1 (human)) of 37%. The kinase still bound, per cent of control (MAP2K6 (human)) was 90%, the kinase still bound, per cent of control (PRKCI (human)) was 100% and the kinase still bound, per cent of control (PKN1 (human)) was 97%. For the same molecule, the kinase still bound, per cent of control (INSRR (human)) was 100%, the kinase still bound, per cent of control (RPS6KA4 KD1 (human)) was 94% and the kinase still bound, per cent of control (MAP3K13 (human)) was 100%. The kinase still bound, per cent of control (MAST1 (human)) was 81%, the kinase still bound, per cent of control (DAPK3 (human)) was 92% and the kinase still bound, per cent of control (SIK2 (human)) was 100%. For the same molecule, the kinase still bound, per cent of control (NEK3 (human)) was 100%, the kinase still bound, per cent of control (ERBB3 (human)) was 100% and the kinase still bound, per cent of control (PDGFRA (human)) was 92%. It also gave a kinase still bound, per cent of control (STK32B (human)) of 100%, a kinase still bound, per cent of control (CHEK2 (human)) of 100% and a kinase still bound, per cent of control (NEK9 (human)) of 98%. For the same molecule, the kinase still bound, per cent of control (MAK (human)) was 100%, the kinase still bound, per cent of control (SGK110 (human)) was 92% and the kinase still bound, per cent of control (STK4 (human)) was 100%. For the same molecule, the kinase still bound, per cent of control (TXK (human)) was 92%, the kinase still bound, per cent of control (FLT4 (human)) was 92% and the per cent of control (PRKACA (human)) was 100%. For the same molecule, the kinase still bound, per cent of control (MAPK9 (human)) was 100%, the kinase still bound, per cent of control [1] was 100% and the kinase still bound, per cent of control (MAP3K3 (human)) was 81%. It also gave a kinase still bound, per cent of control (FES (human)) of 100%, a kinase still bound, per cent of control [2] of 100% and a kinase still bound, per cent of control (MAPK1 (human)) of 100%. For the same molecule, the kinase still bound, per cent of control (CSNK1A1L (human)) was 91%, the kinase still bound, per cent of control (SLK (human)) was 70% and the kinase still bound, per cent of control (LYN (human)) was 92%. The kinase still bound, per cent of control (MAP3K15 (human)) was 96%, the kinase still bound, per cent of control (KIT (human)) was 100% and the per cent of control (CSNK1D (human)) was 100%. The kinase still bound, per cent of control (DSTYK (human)) was 100%, the kinase still bound, per cent of control (RIOK2 (human)) was 79% and the kinase still bound, per cent of control (ADCK3 (human)) was 80%. It also gave a kinase still bound, per cent of control [3] of 100% and a per cent of control (CDC2L2 (human)) of 100%.

`CC(C)n1nc(-c2cc3cc(O)ccc3[nH]2)c2c(N)ncnc21` gave a kinase still bound, per cent of control (MARK3 (human)) of 100%, a kinase still bound, per cent of control (MKNK1 (human)) of 19% and a kinase still bound, per cent of control (MAP2K6 (human)) of 70%. It also gave a kinase still bound, per cent of control (PRKCI (human)) of 52%, a kinase still bound, per cent of control (PKN1 (human)) of 85% and a kinase still bound, per cent of control (INSRR (human)) of 100%. For the same molecule, the kinase still bound, per cent of control (RPS6KA4 KD1 (human)) was 100%, the kinase still bound, per cent of control (MAP3K13 (human)) was 100% and the kinase still bound, per cent of control (MAST1 (human)) was 87%. For the same molecule, the kinase still bound, per cent of control (DAPK3 (human)) was 2.8%, the kinase still bound, per cent of control (SIK2 (human)) was 9.4% and the kinase still bound, per cent of control (NEK3 (human)) was 55%. For the same molecule, the kinase still bound, per cent of control (ERBB3 (human)) was 0%, the kinase still bound, per cent of control (PDGFRA (human)) was 2.2% and the kinase still bound, per cent of control (STK32B (human)) was 8.2%. It also gave a kinase still bound, per cent of control (CHEK2 (human)) of 19%, a kinase still bound, per cent of control (NEK9 (human)) of 100% and a kinase still bound, per cent of control (MAK (human)) of 99%. For the same molecule, the kinase still bound, per cent of control (SGK110 (human)) was 100%, the kinase still bound, per cent of control (STK4 (human)) was 84% and the kinase still bound, per cent of control (TXK (human)) was 3%. The kinase still bound, per cent of control (FLT4 (human)) was 0.3%, the per cent of control (PRKACA (human)) was 47% and the kinase still bound, per cent of control [1] was 12%. It also gave a kinase still bound, per cent of control (MAP3K3 (human)) of 3.2%, a kinase still bound, per cent of control (FES (human)) of 100% and a kinase still bound, per cent of control [2] of 11%. The kinase still bound, per cent of control (MAPK1 (human)) was 100%, the kinase still bound, per cent of control (SLK (human)) was 0.2% and the kinase still bound, per cent of control (LYN (human)) was 12%. It also gave a kinase still bound, per cent of control (MAP3K15 (human)) of 76%, a kinase still bound, per cent of control (KIT (human)) of 0.8% and a per cent of control (CSNK1D (human)) of 2.4%. The kinase still bound, per cent of control (DSTYK (human)) was 5.8%, the kinase still bound, per cent of control (RIOK2 (human)) was 38% and the kinase still bound, per cent of control (ADCK3 (human)) was 57%. It also gave a per cent of control (CDC2L2 (human)) of 100%.
